According to patent US12383632B2, “Doxorubicin containing nanoplexes and uses thereof” (University of Maryland, Baltimore, priority 2019, dated 2025):

Tests used:
MDA-MB-435 = assay: In vivo tumor experiments, tumor size; set-up: species or system mice; conditions: low dose 2.2 μg/injection, versus untreated controls
Method: MDA-MB-435 cells (4×10^6 cells per injection) were subcutaneously injected bilaterally into each mouse. After 4 days, when the subcutaneous tumors were about 45 mm3, the mice were separated into groups of 6 mice to determine the efficacy of treatments. The groups were as follows: untreated, nanoplex alone, low dose doxorubicin (2.2 μg/injection), high dose doxorubicin (4.4 μg/injection, low dose doxorubicin nanoplex (2.2 μg/injection), high dose doxorubicin nanoplex (4.4 μg/injection). The mice were given five intravenous injections of the various treatments. Nanoplexes were administered every 2 to 3 days (Monday, Wednesday, Friday). Tumor size was assessed with calipers before each injection and 2 days after the last injection; the size was calculated by formula ½×d1×d22, where d2 is the smaller of the two measurements. Mice were weighed before each injection with tumor weight subtracted to obtain the final weight.

Ki67 = assay: Immunofluorescence of Ki67 in tumor sections; assay type: in vivo, mice
Method: Quantification of tumor cells staining positive for Ki67 with different treatment groups is shown, expressed as the percentage of Ki67 positive cells. The data represent the mean+SD of four HPF images (60×) for each treatment. **, p<0.01, ***, p<0.001. N=˜50 cells/image.
After the tumors were fixed and a heat-mediated antigen retrieval step was performed, the tumors were permeabilized (0.1% Triton X-100) for 10 min and then blocked with 5% BSA in 0.1% PBS-Tween for 2 h. […] Nuclear DNA was labeled with DAPI.

Compound: COc1cccc2c1C(=O)c1c(O)c3c(c(O)c1C2=O)C[C@@](O)(C(=O)CO)C[C@@H]3O[C@H]1C[C@H](N)[C@H](O)[C@H](C)O1 [free doxorubicin, doxorubicin]
- effect on growth / size of tumors (words) (MDA-MB-435): does not reduce the size of tumors
- effect on growth / size of tumors (words) (MDA-MB-435; listed as doxorubicin): no effect
- tumor cells stained positive for Ki67 (Ki67; high dose, 4.4 μg doxorubicin/injection): about 57%
- tumor cells stained positive for Ki67 (Ki67; low dose, 2.2 μg doxorubicin/injection): 80%
